In article PMC10788528 (The Journal of Biological Chemistry, 2023):
Where “and” joins values, the source holds several entries; their conditions need not be identical. Equal entries are not always repeated. Where two headings read alike, the source gives them in different places.

Assays:
[1] = test system: S. mansoni and S. haematobium infections; details: preliminary clinical evaluation; cited from earlier work
Sb.TRPMMCLZ = Sb.TRPMMCLZ (Schistosoma bovis, UniProt A0A430Q971); assay: Ca2+ reporter assay, Sb.TRPMMCLZ; type: cell-based
Sm.TRPM[H946A]MCLZ = assay: Ca2+ reporter assay, Sm.TRPM[H946A]MCLZ mutant; type: cell-based, Schistosoma mansoni; details: alanine mutant
adult S. mansoni worms [2] = details: cited from earlier work
adult S. mansoni worms [3] = assay: Adult schistosome movement; type: cell-based, Schistosoma mansoni
juvenile worms = details: ref 7 (PZQ); 12 ((S)-MCLZ); cited from earlier work
Sm.TRPM[H831A]MCLZ = assay: Ca2+ reporter assay, Sm.TRPM[H831A]MCLZ mutant; type: cell-based, Schistosoma mansoni; details: binding pocket mutant
[4] = test system: HEK293 cells expressing GFP alone; assay: Cell-attached current recordings, HEK293 cells expressing GFP alone; type: cell-based; details: 10 μM
S. japonicum worms = details: cited from earlier work
Sh.TRPMMCLZ = Sh.TRPMMCLZ (Schistosoma haematobium, UniProt A0A922LUV1); assay: Ca2+ reporter assay, Sh.TRPMMCLZ; type: cell-based
Sm.TRPM[Y1117A]MCLZ = assay: Ca2+ reporter assay, Sm.TRPM[Y1117A]MCLZ mutant; type: cell-based, Schistosoma mansoni; details: binding pocket mutant
Sb.TRPM[H946Y] = assay: Ca2+ reporter assay, Sb.TRPM[H946Y] mutant; type: cell-based, Schistosoma bovis; details: S4 point mutant
Sh.TRPM[H946Y] = assay: Ca2+ reporter assay, Sh.TRPM[H946Y] mutant; type: cell-based, Schistosoma haematobium; details: S4 point mutant
Sm.TRPMMCLZ [5] = target: T1, Sm.TRPMMCLZ (Schistosoma mansoni, UniProt A0A5K4FCC0); assay: Cell-attached current recordings, HEK293 cells expressing Sm.TRPMMCLZ and GFP; type: cell-based; details: 10 μM
T1 sequence (A0A5K4FCC0 1-1380): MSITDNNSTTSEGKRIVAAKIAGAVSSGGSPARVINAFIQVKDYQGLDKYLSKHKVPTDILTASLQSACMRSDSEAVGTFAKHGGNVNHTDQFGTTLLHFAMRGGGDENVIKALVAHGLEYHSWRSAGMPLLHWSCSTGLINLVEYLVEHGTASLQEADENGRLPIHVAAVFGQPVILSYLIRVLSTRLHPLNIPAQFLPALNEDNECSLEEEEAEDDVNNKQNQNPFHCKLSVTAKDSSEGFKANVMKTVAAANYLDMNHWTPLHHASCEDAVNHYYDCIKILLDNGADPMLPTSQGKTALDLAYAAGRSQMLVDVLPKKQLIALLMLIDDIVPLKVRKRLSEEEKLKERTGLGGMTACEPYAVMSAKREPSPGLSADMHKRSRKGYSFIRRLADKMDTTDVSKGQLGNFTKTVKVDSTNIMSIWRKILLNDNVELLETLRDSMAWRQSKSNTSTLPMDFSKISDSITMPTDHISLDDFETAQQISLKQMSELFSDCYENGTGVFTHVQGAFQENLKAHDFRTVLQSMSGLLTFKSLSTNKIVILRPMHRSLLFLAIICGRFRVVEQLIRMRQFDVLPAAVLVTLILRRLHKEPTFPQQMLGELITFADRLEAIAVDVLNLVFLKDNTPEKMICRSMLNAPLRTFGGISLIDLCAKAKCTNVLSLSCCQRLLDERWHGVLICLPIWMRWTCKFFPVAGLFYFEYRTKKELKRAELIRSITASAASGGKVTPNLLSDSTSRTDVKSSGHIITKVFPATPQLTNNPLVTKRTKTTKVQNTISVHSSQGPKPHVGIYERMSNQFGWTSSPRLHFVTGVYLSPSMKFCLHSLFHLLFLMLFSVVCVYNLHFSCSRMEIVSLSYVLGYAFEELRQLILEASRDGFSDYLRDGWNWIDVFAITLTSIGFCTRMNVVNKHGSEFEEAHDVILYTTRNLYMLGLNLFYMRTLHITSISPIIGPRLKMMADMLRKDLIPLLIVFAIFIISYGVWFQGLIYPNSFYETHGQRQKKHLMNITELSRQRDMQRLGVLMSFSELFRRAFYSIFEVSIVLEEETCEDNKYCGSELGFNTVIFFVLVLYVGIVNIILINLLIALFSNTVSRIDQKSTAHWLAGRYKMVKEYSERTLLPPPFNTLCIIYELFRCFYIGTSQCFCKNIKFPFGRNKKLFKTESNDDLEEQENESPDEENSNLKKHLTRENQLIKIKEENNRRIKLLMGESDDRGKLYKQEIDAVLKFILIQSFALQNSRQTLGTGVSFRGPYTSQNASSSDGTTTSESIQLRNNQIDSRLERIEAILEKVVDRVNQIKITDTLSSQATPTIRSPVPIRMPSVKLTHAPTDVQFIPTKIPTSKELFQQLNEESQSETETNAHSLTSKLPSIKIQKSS

Sm.TRPMPZQ = Sm.TRPMPZQ (Schistosoma mansoni, UniProt A0A5K4F0X5); assay: Ca2+ reporter assay; type: cell-based
Sm.TRPM[H827A]MCLZ = assay: Ca2+ reporter assay, Sm.TRPM[H827A]MCLZ mutant; type: cell-based, Schistosoma mansoni; details: binding pocket mutant
Sm.TRPM[Y864A]MCLZ = assay: Ca2+ reporter assay, Sm.TRPM[Y864A]MCLZ mutant; type: cell-based, Schistosoma mansoni; details: S2 residue mutant
Sj.TRPMMCLZ = Sj.TRPMMCLZ (Schistosoma japonicum, UniProt A0A4Z2D8Z3); assay: Ca2+ reporter assay, Sj.TRPMMCLZ; type: cell-based
Sm.TRPM[E868A]MCLZ = assay: Ca2+ reporter assay, Sm.TRPM[E868A]MCLZ mutant; type: cell-based, Schistosoma mansoni; details: S2 residue mutant
Sm.TRPMMCLZ [6] = target: T1, Sm.TRPMMCLZ; assay: Ca2+ reporter assay; type: cell-based; details: Activation of Sm.TRPMMCLZ, EC50, HEK293 cells, cytoplasmic Ca2+ (Fluo-4)
St.TRPMMCLZ = assay: Ca2+ reporter assay, St.TRPMMCLZ; type: cell-based, Schistosoma turkestanicum; details: read-out: Activation of St.TRPMMCLZ, EC50
Sm.TRPMMCLZ [Y1038A] = type: cell-based, Schistosoma mansoni; details: 10 μM, cell-attached
Sm.TRPM[R943A]MCLZ = assay: Ca2+ reporter assay, Sm.TRPM[R943A]MCLZ mutant; type: cell-based, Schistosoma mansoni; details: binding pocket mutant
Sm.TRPMMCLZ [7] = target: T1, Sm.TRPMMCLZ; assay: Confocal Ca2+ imaging, HEK293 cells expressing Sm.TRPMMCLZ; type: cell-based; details: 10 μM

Chain of Sj.TRPMMCLZ (A0A4Z2D8Z3 1-1377): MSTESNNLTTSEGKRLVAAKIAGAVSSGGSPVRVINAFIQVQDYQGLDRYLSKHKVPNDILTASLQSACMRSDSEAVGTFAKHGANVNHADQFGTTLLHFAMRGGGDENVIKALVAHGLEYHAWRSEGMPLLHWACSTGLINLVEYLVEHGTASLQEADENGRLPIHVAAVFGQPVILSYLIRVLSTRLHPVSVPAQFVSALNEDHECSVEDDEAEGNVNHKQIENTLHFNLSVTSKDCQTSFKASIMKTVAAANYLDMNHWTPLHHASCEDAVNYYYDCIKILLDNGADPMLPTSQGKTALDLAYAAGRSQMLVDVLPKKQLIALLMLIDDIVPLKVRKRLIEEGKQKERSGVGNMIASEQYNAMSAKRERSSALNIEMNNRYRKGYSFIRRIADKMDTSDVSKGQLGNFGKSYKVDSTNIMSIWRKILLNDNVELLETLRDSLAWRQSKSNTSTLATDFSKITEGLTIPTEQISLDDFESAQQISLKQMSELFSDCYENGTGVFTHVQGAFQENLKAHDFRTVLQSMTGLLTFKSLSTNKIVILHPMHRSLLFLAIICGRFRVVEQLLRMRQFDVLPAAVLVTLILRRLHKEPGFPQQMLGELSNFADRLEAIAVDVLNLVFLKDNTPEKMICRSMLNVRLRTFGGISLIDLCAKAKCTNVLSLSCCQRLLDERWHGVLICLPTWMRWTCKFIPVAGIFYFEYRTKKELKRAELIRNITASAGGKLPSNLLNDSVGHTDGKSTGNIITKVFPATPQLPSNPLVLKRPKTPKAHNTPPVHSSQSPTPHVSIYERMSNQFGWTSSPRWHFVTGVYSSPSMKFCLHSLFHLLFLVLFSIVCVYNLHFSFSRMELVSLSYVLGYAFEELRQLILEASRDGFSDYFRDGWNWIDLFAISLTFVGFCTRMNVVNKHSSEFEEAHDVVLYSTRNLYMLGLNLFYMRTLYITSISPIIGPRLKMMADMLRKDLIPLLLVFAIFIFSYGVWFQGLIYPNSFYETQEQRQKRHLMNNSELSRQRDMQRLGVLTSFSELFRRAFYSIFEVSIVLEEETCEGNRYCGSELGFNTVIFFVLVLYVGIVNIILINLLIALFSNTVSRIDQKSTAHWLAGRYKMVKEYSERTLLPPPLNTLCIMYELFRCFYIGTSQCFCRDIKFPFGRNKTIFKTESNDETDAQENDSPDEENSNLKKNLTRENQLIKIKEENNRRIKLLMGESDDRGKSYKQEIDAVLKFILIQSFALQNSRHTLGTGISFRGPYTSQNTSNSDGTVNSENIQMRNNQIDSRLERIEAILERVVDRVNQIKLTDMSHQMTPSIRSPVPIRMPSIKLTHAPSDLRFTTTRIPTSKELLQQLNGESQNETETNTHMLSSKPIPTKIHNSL
Chain of Sh.TRPMMCLZ (A0A922LUV1 1-1380): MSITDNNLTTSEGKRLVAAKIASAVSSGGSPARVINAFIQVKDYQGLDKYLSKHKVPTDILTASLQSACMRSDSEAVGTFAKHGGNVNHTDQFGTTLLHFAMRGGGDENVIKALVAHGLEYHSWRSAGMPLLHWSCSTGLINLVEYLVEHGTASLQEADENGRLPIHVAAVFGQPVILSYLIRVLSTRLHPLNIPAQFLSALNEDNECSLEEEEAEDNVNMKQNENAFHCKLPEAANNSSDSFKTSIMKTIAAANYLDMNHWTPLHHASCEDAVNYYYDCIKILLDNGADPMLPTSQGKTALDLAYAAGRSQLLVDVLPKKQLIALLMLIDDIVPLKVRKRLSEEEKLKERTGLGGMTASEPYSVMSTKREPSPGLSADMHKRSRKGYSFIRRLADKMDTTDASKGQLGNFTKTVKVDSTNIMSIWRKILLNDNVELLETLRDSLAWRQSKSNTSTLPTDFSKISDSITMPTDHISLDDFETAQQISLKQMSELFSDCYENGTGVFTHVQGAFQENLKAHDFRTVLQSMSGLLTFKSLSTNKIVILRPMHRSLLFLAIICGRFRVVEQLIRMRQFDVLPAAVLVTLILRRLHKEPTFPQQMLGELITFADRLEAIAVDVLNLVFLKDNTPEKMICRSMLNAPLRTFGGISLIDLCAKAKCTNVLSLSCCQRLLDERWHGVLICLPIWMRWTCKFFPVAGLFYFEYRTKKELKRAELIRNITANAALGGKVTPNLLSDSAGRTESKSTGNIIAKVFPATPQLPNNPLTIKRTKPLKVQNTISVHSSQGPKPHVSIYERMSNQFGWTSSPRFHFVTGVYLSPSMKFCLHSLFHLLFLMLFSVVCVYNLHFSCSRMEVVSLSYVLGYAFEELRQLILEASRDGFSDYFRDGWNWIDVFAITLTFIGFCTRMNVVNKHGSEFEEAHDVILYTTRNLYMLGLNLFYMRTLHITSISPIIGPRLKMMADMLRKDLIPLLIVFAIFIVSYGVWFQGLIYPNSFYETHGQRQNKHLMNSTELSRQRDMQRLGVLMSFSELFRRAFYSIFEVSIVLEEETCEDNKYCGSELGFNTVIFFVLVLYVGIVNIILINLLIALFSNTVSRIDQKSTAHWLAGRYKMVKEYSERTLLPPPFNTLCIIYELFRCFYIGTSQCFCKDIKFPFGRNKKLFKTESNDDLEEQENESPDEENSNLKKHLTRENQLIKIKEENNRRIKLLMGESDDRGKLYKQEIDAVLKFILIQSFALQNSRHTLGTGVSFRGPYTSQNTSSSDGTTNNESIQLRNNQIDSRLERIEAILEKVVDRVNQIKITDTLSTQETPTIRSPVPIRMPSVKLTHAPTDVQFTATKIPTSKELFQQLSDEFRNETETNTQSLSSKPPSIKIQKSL
Chain of Sb.TRPMMCLZ (A0A430Q971 1-1241): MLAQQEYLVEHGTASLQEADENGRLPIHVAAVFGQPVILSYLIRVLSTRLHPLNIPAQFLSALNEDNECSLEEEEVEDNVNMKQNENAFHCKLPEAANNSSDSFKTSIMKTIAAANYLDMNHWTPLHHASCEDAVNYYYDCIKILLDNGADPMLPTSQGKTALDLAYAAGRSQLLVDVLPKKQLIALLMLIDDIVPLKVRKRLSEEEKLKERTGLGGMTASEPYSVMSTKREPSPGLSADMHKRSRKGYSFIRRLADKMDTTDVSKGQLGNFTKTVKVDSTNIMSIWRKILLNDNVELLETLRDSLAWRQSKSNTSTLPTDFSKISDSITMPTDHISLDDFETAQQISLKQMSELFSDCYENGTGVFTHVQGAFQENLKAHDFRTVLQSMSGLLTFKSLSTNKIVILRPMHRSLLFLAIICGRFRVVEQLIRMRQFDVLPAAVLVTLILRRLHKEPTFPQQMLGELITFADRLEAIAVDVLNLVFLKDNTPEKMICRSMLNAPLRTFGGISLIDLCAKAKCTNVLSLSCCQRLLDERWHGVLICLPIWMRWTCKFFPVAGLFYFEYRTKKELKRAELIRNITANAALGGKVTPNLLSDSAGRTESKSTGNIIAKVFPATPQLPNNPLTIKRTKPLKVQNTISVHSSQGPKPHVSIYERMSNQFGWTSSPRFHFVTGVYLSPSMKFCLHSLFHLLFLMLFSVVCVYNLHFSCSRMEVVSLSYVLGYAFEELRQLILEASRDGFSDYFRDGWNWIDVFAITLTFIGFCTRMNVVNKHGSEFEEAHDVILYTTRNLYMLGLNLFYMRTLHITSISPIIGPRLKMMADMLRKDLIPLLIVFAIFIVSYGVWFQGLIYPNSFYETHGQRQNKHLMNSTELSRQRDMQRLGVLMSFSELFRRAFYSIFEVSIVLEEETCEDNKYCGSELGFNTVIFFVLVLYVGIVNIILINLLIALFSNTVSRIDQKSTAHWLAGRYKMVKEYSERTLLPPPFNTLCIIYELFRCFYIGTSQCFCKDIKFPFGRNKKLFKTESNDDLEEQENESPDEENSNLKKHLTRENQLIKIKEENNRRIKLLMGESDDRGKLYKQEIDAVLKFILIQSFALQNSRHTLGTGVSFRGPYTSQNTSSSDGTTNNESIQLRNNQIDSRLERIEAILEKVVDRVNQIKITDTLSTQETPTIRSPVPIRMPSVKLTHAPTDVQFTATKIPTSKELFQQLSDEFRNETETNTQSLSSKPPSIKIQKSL

## C[C@@H]1N=C(c2ccccc2Cl)c2cc([N+](=O)[O-])ccc2NC1=O [(S)-MCLZ, (S)-meclonazepam]
[1]
  Clinical outcome of infection: cured S. mansoni and S. haematobium infections
  Side effects in subjects: dose-dependent drowsiness, dizziness, slurred speech, ataxia, reduced mental alertness, muscle weakness, hypotension, and bradycardia
Sb.TRPMMCLZ
  EC50: 1300 ± 300 nM
Sm.TRPM[H946A]MCLZ
  Potency at Sm.TRPM[H946A]MCLZ relative to wildtype: slightly increased potency
Adult S. mansoni worms [2]
  Damage to the worm tegument: pronounced damage to the worm tegument
  Time to spastic paralysis of adult S. mansoni worms: < 1 min
Adult S. mansoni worms [2]; read-out: Sensitivity of schistosome worms, IC50
  IC50: 2000 to 3000 nM
Adult S. mansoni worms [3]; 1 μM, adult S. mansoni worms, images 1 min after addition
  Effect on worm movement (paralysis): rapid, spastic paralysis
Adult S. mansoni worms [3]; Schistosoma mansoni, read-out: Inhibition of motility, IC50
  IC50: 1540 ± 90 nM
Juvenile worms
  Efficacy against juvenile / immature worms: displays efficacy against juvenile worms
Sm.TRPM[H831A]MCLZ
  Activation of Sm.TRPM[H831A]MCLZ: little activation
[4]
  Cells with evoked currents: 0/10
S. japonicum worms
  Activity against S. japonicum worms: poorly active
Sh.TRPMMCLZ
  EC50: 1400 ± 400 nM
St.TRPM[Y940H]MCLZ
  EC50: 800 ± 200 nM
Sm.TRPM[Y1117A]MCLZ
  Activation of Sm.TRPM[Y1117A]MCLZ: little activation
Sb.TRPM[H946Y]
  Sensitivity of Sb.TRPM[H946Y] relative to wildtype: lower sensitivity of response
Sh.TRPM[H946Y]
  Sensitivity of Sh.TRPM[H946Y] relative to wildtype: lower sensitivity of response
Sm.TRPMMCLZ [5]; holding potential of 60 mV as printed
  Cells with evoked inward current: 17/21
Sm.TRPMMCLZ [5]; voltage ramp, I-V linear
  Reversal potential of current-voltage relationship: ~0 mV
Sm.TRPMPZQ; HEK293 cells, 1 nM to 100 μM
  Agonist activity at Sm.TRPMPZQ (concentration-response): did not activate
Sm.TRPMPZQ; competition versus (±)-PZQ (0.6 μM), high concentrations (>30 μM)
  Antagonism of PZQ activation of Sm.TRPMPZQ: partially attenuated
Sm.TRPM[H827A]MCLZ
  Activation of Sm.TRPM[H827A]MCLZ: resembled the wildtype channel
Sm.TRPM[Y864A]MCLZ
  Activation of Sm.TRPM[Y864A]MCLZ (effect of mutation): much less of an effect
Sj.TRPMMCLZ
  EC50: > 50000 nM
Sm.TRPM[E868A]MCLZ
  Activation of Sm.TRPM[E868A]MCLZ (effect of mutation): much less of an effect
Sm.TRPMMCLZ [6]
  EC50: 1100 nM and ~1000 nM
St.TRPMMCLZ
  EC50: > 50000 nM
Sm.TRPMMCLZ [Y1038A]
  Current response in pore mutant Sm.TRPMMCLZ [Y1038A]: strongly attenuated
Sm.TRPM[R943A]MCLZ
  Activation of Sm.TRPM[R943A]MCLZ: little activation
Sm.TRPMMCLZ [7]
  Ca2+ signals by confocal imaging in cells expressing Sm.TRPMMCLZ: sustained Ca^2+ transients
